Experimental data: paper PMC8395886, “Square-Planar vs. Trigonal Bipyramidal Geometry in Pt(II) Complexes Containing Triazole-Based Glucose Ligands as Potential Anticancer Agents” (International Journal of Molecular Sciences, 2021)
Where two headings read alike, the source gives them in different places.

Assays:
[1] = system: HaCaT (human keratinocyte cells); assay: MTT cytotoxicity assay on HaCaT cells; assay type: cell-based; conditions: 48 h incubation
Procedure: (§7) A431, H9c2, and MCF7 cells were purchased from American Type Culture Collection (ATCC). HaCaT cells were from Innoprot (Derio, Spain). Cells were cultured in DMEM (Sigma-Aldrich, St. Louis, MO, USA), supplemented with 10% fetal bovine serum (HyClone, Thermo Scientific, Logan, UT, USA) and antibiotics in a 5% CO2 humidified atmosphere at 37 °C. The growth medium of H9c2 cells was implemented with 2 mM L-glutamine and 2 mM sodium pyruvate. Cells were seeded in 96-well plates at a density of 2.5 × 10^3 cells per well. Different drugs were added at increasing concentrations 24 h after seeding for dose-dependent assays. […] After 48 h incubation, cell viability was assessed by MTT assay, as described in a previous study [30]. Control experiments were performed by either growing cells in the absence of the compound or by supplementing the cell cultures with identical volumes of buffer (water:acetone, 1:1 v/v). Each value is the mean of three independent experiments, each with three determinations. Significance was determined by Student’s t-test.

[2] = system: A431 (epidermoid carcinoma cells); assay: MTT cytotoxicity assay on A431 cells; assay type: cell-based, human; conditions: for IC50: 48 h incubation; for Selectivity Index H9c2/A431 / Selectivity Index HaCaT/A431: IC50 immortalized cells/IC50 cancer cells
Procedure: as §7

[3] = system: H9c2 (rat cardiomyoblast cells); assay: MTT cytotoxicity assay on H9c2 cells; assay type: cell-based; conditions: 48 h incubation
Procedure: as §7

[4] = system: MCF-7 (breast cancer cells); assay: MTT cytotoxicity assay on MCF7 cells; assay type: cell-based, human; conditions: for IC50: 48 h incubation; for Selectivity Index H9c2/MCF7 / Selectivity Index HaCaT/MCF7: IC50 immortalized cells/IC50 cancer cells
Procedure: as §7

[5] = In-solution stability by 1H-NMR over time; assay type: physicochemical
Procedure: To compare the solution stability of the complexes, ^1H-NMR and UV–vis spectra over time were recorded for 4Pt type species dissolved in diverse aqueous (phosphate buffer, PB; pH 7.4): organic solvent mixtures, i.e., 1:1 v/v D2O:acetone-d6; 9:1 v/v PB:DMSO-d6; 1:1 v/v PB:DMSO-d6 and DMSO-d6. These solvents were selected to verify the stability in pseudo-physiological conditions in the presence of solvents with different coordinating properties and concentrations.
The appropriate 4Pt complex (5 mg) was dissolved in 0.5 mL of DMSO-d6 or acetone-d6. Calculated volumes of solution were diluted to 600 µL with the appropriate volumes of PB in D2O (25 mM, pH 7.4) and/or DMSO-d6 to provide a 1 mM solution of the complex with the appropriate v/v ratio of solvents. Samples were incubated at 37 °C, and NMR spectra were recorded at different times.

[6] = system: MCF-7, A431, H9c2 and HaCaT cells; assay: MTT assay, all the analyzed cell lines (statement in words); assay type: cell-based; conditions: 48 h
Procedure: The biological effect of the Pt-compounds was tested on two human tumor cell lines, MCF-7 (breast cancer cells) and A431 (epidermoid carcinoma cells), and two non-tumorigenic cell lines, H9c2 (rat cardiomyoblast cells), and HaCaT (human keratinocyte cells), using the MTT assay. […] Indeed, due to their inertness towards the substitution of the sugar ligand, their biological activity can be influenced by the nature of the sugar ligand, whose presence in the complex can affect its internalization or mechanism of action once inside the cell. On the other hand, in the case of the five-coordinate complexes, the loss of the sugar tag plausibly determines their substantial leveling of activities. […] The behavior of 4Pt-im was very similar to that of 4Pt-py.
(§1) A431, H9c2, and MCF7 cells were purchased from American Type Culture Collection (ATCC). HaCaT cells were from Innoprot (Derio, Spain). Cells were cultured in DMEM (Sigma-Aldrich, St. Louis, MO, USA), supplemented with 10% fetal bovine serum (HyClone, Thermo Scientific, Logan, UT, USA) and antibiotics in a 5% CO2 humidified atmosphere at 37 °C. The growth medium of H9c2 cells was implemented with 2 mM L-glutamine and 2 mM sodium pyruvate. […] After 48 h incubation, cell viability was assessed by MTT assay, as described in a previous study. […] Significance was determined by Student’s t-test.

A431 cells [7] = assay: GLUT1-inhibitor-mediated cytotoxicity assay (quercetin, MTT); assay type: cell-based, human
Procedure: (§2) The cell death mechanism induced by 4Pt-py was analyzed on A431 cells. First, the internalization process of 4Pt-py was evaluated by studying the involvement of GLUT receptors. In particular, 4Pt-py internalization and cytotoxicity were tested using quercetin as a glucose transporter inhibitor [24, 30, 42]. […] The 10 µM concentration used was very similar to the IC50 value, and then, a double value (20 µM) was also used to definitely exclude necrosis at very high concentrations.
as §1
(§3) Figure 8 Analysis of the mechanism of action of 4Pt-py. […] Cell viability was assessed using the MTT assay after 48 h incubation. […] (B) Cells were incubated with increasing amounts of 4Pt-py for 48 h, and the release of LDH was measured. […] The % of LDH release was calculated as described in the Materials and Methods section.

A431 cells [8] = assay: LDH release (necrosis); assay type: cell-based, human; conditions: 10 and 20 µM, 48 h
Procedure: as §2
The occurrence of necrosis was determined by measuring the release of lactate dehydrogenase (LDH) in the culture medium, as described by Sucha et al.. The LDH content of the medium from untreated cells was referred to as a spontaneous release, whereas the LDH total cellular content was determined upon cell lysis. The percentage of LDH release was calculated as:(1) LDH release % = [experimental−spontaneus release/total content−spontaneous release]×100
as §3, with “4Pt-py. (A) Glucose-transporter-dependent cytotoxicity of 4Pt-py on A431 cells.” for “4Pt-py.”

procaspase-3 = conditions: A431 cells, 12 μM, 48 h
Procedure: (§4) The activation of the apoptotic pathway was analyzed by Western blotting and an analysis of the mitochondrial potential as it is well known that mitochondrial outer membrane permeabilization is essential to initiate mitochondrial apoptosis.
(§5) A431 cells were plated at a density of 3 × 10^5 cells cm^−2 in a complete medium for 24 h and then treated for 48 h with 12 µM 4Pt-py. At the end of the incubation, both untreated and treated cells were analyzed, as described previously for Western blot analyses. Upon the determination of total protein concentration in the supernatant by the Bradford assay, samples were analyzed by SDS-PAGE and Western blot using specific antibodies directed towards procaspase-3 or -9 (Cell Signal Technology, Danvers, MA, USA). β-actin (Sigma-Aldrich) or GAPDH (Thermo Fisher, Rockford, IL, USA) was used as the loading control. Each value is the mean of three independent experiments, each with three determinations. Significance was determined by Student’s t-test.
(§6) A431 cells were incubated with 12 μM of 4Pt-py for 48 h. (A,B) Analysis by Western blotting of pro-caspase-3 and -9. Β-actin or GAPDH was used as the loading control.

procaspase-9 = conditions: A431 cells, 12 μM, 48 h
Procedure: as §4, §5, §6

A431 cells [9] = conditions: IC50 value (12 µM) and 20 µM, 48 h
Procedure: as §4
Each value is the mean of three independent experiments, each with three determinations. Significance was determined by Student’s t-test.
as §6

[10] = system: HaCaT (human keratinocyte cells); conditions: 48 h incubation; read-out: MTT IC50 48 h, HaCaT; cited from earlier work
[11] = system: A431 (epidermoid carcinoma cells); conditions: 48 h incubation; read-out: MTT IC50 48 h, A431; cited from earlier work

SMILES: CC(=O)OC[C@H]1O[C@@H](n2cc(-c3c[n+]([Pt-2]4([CH3])[n+]5cccc6ccc7ccc[n+]4c7c65)cn3C)nn2)[C@H](OC(C)=O)[C@@H](OC(C)=O)[C@@H]1OC(C)=O.O=S(=O)([O-])C(F)(F)F [4Pt-im]
- IC50 [1]: 27 ± 7 µM
- IC50 [2]: 16 ± 8 µM
- Selectivity Index H9c2/A431 [2]: 3.3
- Selectivity Index HaCaT/A431 [2]: 1.69
- IC50 [3]: 53 ± 11 µM
- IC50 [4]: 43 ± 7 µM
- Selectivity Index H9c2/MCF7 [4]: 1.23
- Selectivity Index HaCaT/MCF7 [4]: 0.63
- Structural variations in solution (1H-NMR) ([5]; 1:1 v/v D2O:acetone-d6, over 3 days): No appreciable structural variations

SMILES: Cn1c[n+]([Pt-2]2([CH3])[n+]3cccc4ccc5ccc[n+]2c5c43)cc1-c1cn([C@@H]2O[C@H](CO)[C@@H](O)[C@H](O)[C@H]2O)nn1.O=S(=O)([O-])C(F)(F)F [4Pt-imdep]
- IC50 [1]: > 200 µM
- IC50 [2]: > 200 µM
- IC50 [3]: > 200 µM
- IC50 [4]: > 200 µM
- Toxic activity (in words) [6]: No toxic activity was observed

SMILES: CC(=O)OC[C@H]1O[C@@H](n2cc(-c3ccc[n+]([Pt-2]4([CH3])[n+]5cccc6ccc7ccc[n+]4c7c65)c3)nn2)[C@H](OC(C)=O)[C@@H](OC(C)=O)[C@@H]1OC(C)=O.O=S(=O)([O-])C(F)(F)F [4Pt-py]
- IC50 [1]: 66 ± 11 µM
- IC50 [2]: 12 ± 2 µM
- Selectivity Index H9c2/A431 [2]: 1.83
- Selectivity Index HaCaT/A431 [2]: 5.5
- IC50 [3]: 22 ± 10 µM
- IC50 [4]: 35 ± 4 µM
- Selectivity Index H9c2/MCF7 [4]: 0.63
- Selectivity Index HaCaT/MCF7 [4]: 1.88
- Inhibition of cytotoxicity by glucose transporter inhibitor quercetin (A431 cells [7]; A431 cells, 0.5–200 μM compound ± 5 μM quercetin, 48 h): no inhibition of cytotoxicity was observed in the presence of quercetin
- LDH release (A431 cells [8]): no LDH release was observed
- Pro-caspase-3 signal (procaspase-3): small but significant decrease
- Pro-caspase-9 signal (procaspase-9): small but significant decrease
- Mitochondrial potential (Δψm) (A431 cells [9]): significant decrease
- Time to equilibrium of sugar ligand/DMSO exchange ([5]; 1:1 v/v PB:DMSO-d6, 37 °C): 24 h

SMILES: N.N.[Cl][Pt][Cl] [Cisplatin, reference compound]
- Selectivity Index H9c2/A431 [2]: 0.2
- Selectivity Index HaCaT/A431 [2]: 0.17
- IC50 [3]: 8 ± 2.1 µM
- IC50 [4]: 18 ± 1.6 µM
- Selectivity Index H9c2/MCF7 [4]: 0.44
- IC50 [10]: 6.6 ± 0.3 µM
- IC50 [11]: 39 ± 12 µM

SMILES: O=c1c(O)c(-c2ccc(O)c(O)c2)oc2cc(O)cc(O)c12 [quercetin, reference compound]
- Lethality of quercetin alone (A431 cells [7]; 5 μM, data not shown): non-lethal concentration
